# Test results reported in ChEMBL document CHEMBL1201862, “PubChem BioAssay data set” (2004).
#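 Values below derive from 48-hour exposures of cells grown in 96-well plates, with endpoints linearly interpolated between the two concentrations bracketing the appropriate inhibition level. The concentration for 50% growth inhibition is given as GI50.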 Active and inactive are the calls of the source. No stated cut-off is given here; in the data, active = GI50 up to about 1.1 µM and inactive = higher.
# What was measured:
# Experiment in all cases: NCI anticancer screen, dose series, 48 h
# TK-10 = tested on: TK-10
# SF-295 = tested on: SF-295
# SK-OV-3 = tested on: SK-OV-3
# U-251 = tested on: U-251
# KM12 = tested on: KM12
# SK-MEL-28 = tested on: SK-MEL-28
# K562 = tested on: K562
# UO-31 = tested on: UO-31
# SK-MEL-2 = tested on: SK-MEL-2
# RPMI-8226 = tested on: RPMI-8226
# NCI-H23 = tested on: NCI-H23
# CAKI-1 = tested on: CAKI-1
# SNB-19 = tested on: SNB-19
# A498 = tested on: A498
# OVCAR-4 = tested on: OVCAR-4
# T47D = tested on: T47D
# DU-145 = tested on: DU-145
# PC-3 = tested on: PC-3
# MCF7 = tested on: MCF7
SMILES,GI50 (TK-10),GI50 (SF-295),GI50 (SK-OV-3),GI50 (U-251),GI50 (KM12),GI50 (SK-MEL-28),GI50 (K562),GI50 (UO-31),GI50 (SK-MEL-2),GI50 (RPMI-8226),GI50 (NCI-H23),GI50 (CAKI-1),GI50 (SNB-19),GI50 (A498),GI50 (OVCAR-4),GI50 (T47D),GI50 (DU-145),GI50 (PC-3),GI50 (MCF7)
C/C(CC(=O)Nc1cc(C)ccc1C)=N\NC(=O)c1ccncc1,> 100 µM (inactive),> 100 µM (inactive),> 100 µM (inactive),> 100 µM (inactive),> 100 µM (inactive),> 100 µM (inactive),> 100 µM (inactive),> 100 µM (inactive),> 100 µM (inactive),> 100 µM (inactive),> 100 µM (inactive),,,,,,,,
COC1=C(C)C(=O)C2C(C1=O)C(c1ccc(OC)c(OC)c1)[C@H]2C (stereo partly specified),> 100 µM (inactive),> 100 µM (inactive),> 100 µM (inactive),> 100 µM (inactive),> 100 µM (inactive),> 100 µM (inactive),> 100 µM (inactive),61.1 µM (inactive),> 100 µM (inactive),> 100 µM (inactive),> 100 µM (inactive),> 100 µM (inactive),> 100 µM (inactive),> 100 µM (inactive),> 100 µM (inactive),,,,
O=C(/N=N/c1ccccc1Cl)NNc1ccccc1Cl,50.9 µM (inactive),,,41.6 µM (inactive),,69.7 µM (inactive),27.8 µM (inactive),21.8 µM (inactive),32 µM (inactive),24.7 µM (inactive),50 µM (inactive),36.7 µM (inactive),63.2 µM (inactive),29 µM (inactive),16.2 µM (inactive),30.5 µM (inactive),43.2 µM (inactive),30 µM (inactive),
O=C(c1ccncc1)n1nc(-c2ccccc2)c(/N=N/c2ccccc2[N+](=O)[O-])c1-c1ccccc1,67.9 µM (inactive),32.1 µM (inactive),> 100 µM (inactive),,19.3 µM (inactive),> 100 µM (inactive),36.3 µM (inactive),9.62 µM (inactive),> 100 µM (inactive),28.3 µM (inactive),30 µM (inactive),63.8 µM (inactive),36.9 µM (inactive),70.3 µM (inactive),> 100 µM (inactive),,,,
COc1cc2c(cc1OC(=O)CC(C)O)C1C(OC2=O)C(OC(C)=O)C=C2CCN(C)[C@H]21 (stereo partly specified),26.3 µM (inactive),20.7 µM (inactive),15.9 µM (inactive),24.2 µM (inactive),> 100 µM (inactive),29 µM (inactive),> 100 µM (inactive),47 µM (inactive),15.9 µM (inactive),,33.1 µM (inactive),71.1 µM (inactive),20.7 µM (inactive),17.2 µM (inactive),40.5 µM (inactive),,,,
C[N+](C)(C)CC(CC(=O)[O-])C1CC1 (stereo unspecified),> 100 µM (inactive),> 100 µM (inactive),> 100 µM (inactive),> 100 µM (inactive),> 100 µM (inactive),> 100 µM (inactive),> 100 µM (inactive),> 100 µM (inactive),> 100 µM (inactive),> 100 µM (inactive),> 100 µM (inactive),> 100 µM (inactive),> 100 µM (inactive),> 100 µM (inactive),> 100 µM (inactive),,,,
FC(F)(F)c1cccc(C2SCc3nc4ccccc4n32)c1 (stereo unspecified),72.3 µM (inactive),33.9 µM (inactive),26.8 µM (inactive),62.7 µM (inactive),68.4 µM (inactive),65.9 µM (inactive),8.61 µM (inactive),> 100 µM (inactive),> 100 µM (inactive),12.9 µM (inactive),9.79 µM (inactive),55.2 µM (inactive),51.3 µM (inactive),,,,,,
O=C(Cc1nc2c3c(ccc2nc1O)C(=O)c1ccccc1C3=O)C(=O)Nc1ccccc1[N+](=O)[O-],24.2 µM (inactive),> 10 µM (inactive),60 µM (inactive),17.7 µM (inactive),18.7 µM (inactive),16.1 µM (inactive),12.6 µM (inactive),27.5 µM (inactive),19.1 µM (inactive),11.4 µM (inactive),18.5 µM (inactive),21.5 µM (inactive),16.6 µM (inactive),,13.2 µM (inactive),,,,
O=[N+]([O-])c1ccc(CSc2nncc3[nH]cnc23)cc1,> 100 µM (inactive),65.2 µM (inactive),> 100 µM (inactive),> 100 µM (inactive),> 100 µM (inactive),> 100 µM (inactive),84.9 µM (inactive),33.4 µM (inactive),83.6 µM (inactive),> 100 µM (inactive),> 100 µM (inactive),> 100 µM (inactive),,> 100 µM (inactive),> 100 µM (inactive),> 100 µM (inactive),,> 100 µM (inactive),> 100 µM (inactive)
CN(C)/C=[N+]1/[C@@H](Cc2ccccc2)C(=O)O[B-]1(F)c1ccccc1 (stereo partly specified),> 100 µM (inactive),> 100 µM (inactive),> 100 µM (inactive),> 100 µM (inactive),,> 100 µM (inactive),> 100 µM (inactive),> 100 µM (inactive),,> 100 µM (inactive),> 100 µM (inactive),,> 100 µM (inactive),> 100 µM (inactive),> 100 µM (inactive),> 100 µM (inactive),> 100 µM (inactive),> 100 µM (inactive),> 100 µM (inactive)
Cc1ccc(NC(=O)C(=O)CC(=O)C2CCOC2=O)c(C)c1 (stereo unspecified),> 100 µM (inactive),> 100 µM (inactive),> 100 µM (inactive),> 100 µM (inactive),> 100 µM (inactive),> 100 µM (inactive),> 100 µM (inactive),> 100 µM (inactive),> 100 µM (inactive),> 100 µM (inactive),> 100 µM (inactive),> 100 µM (inactive),> 100 µM (inactive),> 100 µM (inactive),> 100 µM (inactive),,,,
O=c1oc2c(O)c(O)cc3c(=O)oc4c(O)c(O)cc1c4c23 [ELLAGIC ACID],75.2 µM (inactive),> 10 µM (inactive),73.1 µM (inactive),27.9 µM (inactive),> 10 µM (inactive),> 10 µM (inactive),> 10 µM (inactive),39.7 µM (inactive),78.2 µM (inactive),> 10 µM (inactive),47.9 µM (inactive),< 0.01 µM (active),18.7 µM (inactive),21.4 µM (inactive),31.6 µM (inactive),,,,
Cc1cc(NCCCCCCCCNc2cc(C)nc3cc(N(C)C)ccc23)c2ccc(N(C)C)cc2n1,> 10 µM (inactive),8.65 µM (inactive),,1.56 µM (inactive),2.82 µM (inactive),0.933 µM (active),0.881 µM (active),75.5 µM (inactive),5.13 µM (inactive),0.736 µM (active),1.43 µM (inactive),24.3 µM (inactive),3.09 µM (inactive),17.5 µM (inactive),4.88 µM (inactive),,,,
COc1cc(C(O)C(=O)c2cnc3cc([N+](=O)[O-])ccc3n2)ccc1O (stereo unspecified),> 100 µM (inactive),> 100 µM (inactive),> 100 µM (inactive),> 100 µM (inactive),> 100 µM (inactive),,> 100 µM (inactive),> 100 µM (inactive),> 100 µM (inactive),> 100 µM (inactive),,> 100 µM (inactive),> 100 µM (inactive),> 100 µM (inactive),> 100 µM (inactive),,,,
CCCCCCCCCCCCCCCCCCCCCC(=O)Nc1ccn(C2OC(CO)C(O)C2O)c(=O)n1 (stereo unspecified),> 100 µM (inactive),> 84.3 µM (inactive),> 54.6 µM (inactive),> 92.9 µM (inactive),> 100 µM (inactive),> 100 µM (inactive),> 50.6 µM (inactive),32.1 µM (inactive),> 100 µM (inactive),> 100 µM (inactive),3.1 µM (inactive),> 31.6 µM (inactive),> 57 µM (inactive),34.2 µM (inactive),> 100 µM (inactive),,,,
C=C1C2CC(OC(C)=O)C3(C)C(c4ccoc4)OC(=O)[C@@H](O)[C@]13OC1C[C@H](OC(C)=O)C(C)(C)[C@H](C(O)C(=O)OC)[C@]12C (stereo partly specified),> 100 µM (inactive),> 100 µM (inactive),> 100 µM (inactive),> 100 µM (inactive),> 100 µM (inactive),> 100 µM (inactive),> 100 µM (inactive),> 100 µM (inactive),> 100 µM (inactive),> 100 µM (inactive),> 100 µM (inactive),,> 100 µM (inactive),> 100 µM (inactive),> 100 µM (inactive),,,,
NNC(=O)C(=O)N/N=C1\CCC(=O)CC1C(=O)CCC(=O)Nc1ccc(Cl)cc1 (stereo unspecified),> 100 µM (inactive),> 100 µM (inactive),> 100 µM (inactive),> 100 µM (inactive),64 µM (inactive),> 100 µM (inactive),> 100 µM (inactive),> 100 µM (inactive),> 100 µM (inactive),> 100 µM (inactive),> 100 µM (inactive),> 100 µM (inactive),> 100 µM (inactive),> 100 µM (inactive),> 100 µM (inactive),,,,
COc1ccc(-c2cc(O)c3ccc(F)cc3n2)cc1,> 100 µM (inactive),> 100 µM (inactive),> 100 µM (inactive),,77.4 µM (inactive),> 100 µM (inactive),> 100 µM (inactive),> 100 µM (inactive),,> 100 µM (inactive),> 100 µM (inactive),,> 100 µM (inactive),,> 100 µM (inactive),,,,
COc1cc(/C=C\c2ccc(Cl)cc2)cc(OC)c1OC,38.9 µM (inactive),0.0331 µM (active),0.228 µM (active),0.231 µM (active),0.173 µM (active),0.454 µM (active),0.033 µM (active),0.593 µM (active),0.245 µM (active),0.143 µM (active),0.247 µM (active),0.384 µM (active),0.322 µM (active),0.171 µM (active),5.74 µM (inactive),,,,
